Here are results for three compounds from ChEMBL document CHEMBL1201862, “PubChem BioAssay data set” (2004).

Activity calls are given as the source filed them.

In assay [1] the target is T1, Neuropeptide Y receptor type 1 (Homo sapiens, UniProt P25929).
T1 sequence (P25929 whole entry): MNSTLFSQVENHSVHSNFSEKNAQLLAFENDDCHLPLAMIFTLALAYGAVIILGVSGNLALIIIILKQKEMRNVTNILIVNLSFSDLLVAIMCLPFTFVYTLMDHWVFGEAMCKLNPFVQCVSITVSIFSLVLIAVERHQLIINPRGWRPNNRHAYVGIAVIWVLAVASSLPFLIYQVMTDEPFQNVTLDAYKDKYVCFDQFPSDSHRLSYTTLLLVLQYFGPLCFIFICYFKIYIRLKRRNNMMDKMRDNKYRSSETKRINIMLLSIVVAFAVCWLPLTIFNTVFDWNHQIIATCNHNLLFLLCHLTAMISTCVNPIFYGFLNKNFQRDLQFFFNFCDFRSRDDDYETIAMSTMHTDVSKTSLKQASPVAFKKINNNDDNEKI
Put plainly: IC50 of human NPY-Y1 blockers – cell-based, dose response (AID 1277). The assay is classed as functional.

For assay [2], the target named is T2, Neuropeptide Y receptor type 2 (Homo sapiens, UniProt P49146).
T2 sequence (P49146 whole entry): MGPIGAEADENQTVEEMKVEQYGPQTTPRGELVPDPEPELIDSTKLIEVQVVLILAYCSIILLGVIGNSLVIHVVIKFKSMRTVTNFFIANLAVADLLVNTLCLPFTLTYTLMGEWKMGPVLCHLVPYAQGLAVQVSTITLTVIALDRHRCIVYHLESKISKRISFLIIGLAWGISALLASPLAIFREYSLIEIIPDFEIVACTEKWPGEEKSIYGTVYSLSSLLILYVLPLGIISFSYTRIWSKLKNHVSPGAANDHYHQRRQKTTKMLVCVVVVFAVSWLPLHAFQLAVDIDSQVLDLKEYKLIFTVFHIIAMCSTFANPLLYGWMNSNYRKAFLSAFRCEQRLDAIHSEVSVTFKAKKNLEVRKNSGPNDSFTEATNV
Put plainly: IC50 for human NPY-Y2 blockade – cell-based, counter-screen for NPY-Y1 antagonist project, dose response (AID 1278). Format: functional.

Assay [3] has as its target Neuropeptides B/W receptor type 1 (Homo sapiens, UniProt P48145). The assay is described as follows: Fluorescence-based dose response cell-based high throughput screening assay to identify antagonists of the G-protein coupled receptor 7 (GPR7). [Related pubchem assays: 1952 (Screening assay (GPR7 antagonists).), 1880 (Summary AID.)]. Format: functional.
The target of assay [4] is Melanin-concentrating hormone receptor 1 (Homo sapiens, UniProt Q99705). Put plainly: Fluorescence-based counterscreen for antagonists of the G-protein coupled receptor 7 (GPR7): cell-based high throughput dose response assay to identify antagonists of the melanin-concentrating hormone receptor 1 (MCHR1). Format: functional.
Chain of Melanin-concentrating hormone receptor 1 (Q99705 whole entry): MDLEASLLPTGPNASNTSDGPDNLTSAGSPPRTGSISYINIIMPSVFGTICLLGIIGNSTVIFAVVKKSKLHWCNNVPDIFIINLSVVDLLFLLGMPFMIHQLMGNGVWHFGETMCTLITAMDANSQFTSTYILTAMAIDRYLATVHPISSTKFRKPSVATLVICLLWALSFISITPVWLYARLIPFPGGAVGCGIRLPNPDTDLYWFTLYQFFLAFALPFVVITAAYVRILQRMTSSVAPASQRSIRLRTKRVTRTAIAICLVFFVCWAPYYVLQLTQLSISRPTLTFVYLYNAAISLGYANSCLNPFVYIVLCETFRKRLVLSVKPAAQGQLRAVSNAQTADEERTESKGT
Assay [5] deals with Eukaryotic translation initiation factor 4H (Homo sapiens, UniProt Q15056). Put plainly: eIF4H binding inhibition – biochemical, uHTS, fluorescence polarization, translation initiation inhibitor project, primary screen (AID 2012). In general terms: Fluorescence polarisation rises when a labelled molecule tumbles more slowly, as on binding a larger partner.
The target of assay [6] is Polyadenylate-binding protein 1 (Homo sapiens, UniProt P11940). Put plainly: blockers of PABP interaction with poly(A) – biochemical, fluorescence polarization, […] (AID 2014).
Chain of Polyadenylate-binding protein 1 (P11940 whole entry): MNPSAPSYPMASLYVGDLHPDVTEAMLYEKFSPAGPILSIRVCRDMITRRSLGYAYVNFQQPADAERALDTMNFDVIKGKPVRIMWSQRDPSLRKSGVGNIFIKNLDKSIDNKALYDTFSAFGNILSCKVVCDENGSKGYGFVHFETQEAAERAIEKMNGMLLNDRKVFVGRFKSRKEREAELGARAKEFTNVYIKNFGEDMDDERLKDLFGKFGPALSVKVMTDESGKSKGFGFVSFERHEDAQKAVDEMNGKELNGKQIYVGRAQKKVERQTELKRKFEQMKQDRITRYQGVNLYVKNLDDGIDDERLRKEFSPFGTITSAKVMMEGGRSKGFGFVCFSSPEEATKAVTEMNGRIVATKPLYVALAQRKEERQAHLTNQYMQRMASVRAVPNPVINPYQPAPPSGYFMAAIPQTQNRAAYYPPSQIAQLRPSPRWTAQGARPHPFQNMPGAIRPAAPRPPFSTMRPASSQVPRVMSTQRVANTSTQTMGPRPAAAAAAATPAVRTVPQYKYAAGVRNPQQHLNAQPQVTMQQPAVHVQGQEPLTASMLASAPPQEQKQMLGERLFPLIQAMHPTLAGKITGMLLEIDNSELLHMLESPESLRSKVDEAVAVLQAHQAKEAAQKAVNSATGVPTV
The next assay addresses Protein S100-A4 (Homo sapiens, UniProt P26447). Put plainly: human S100A4 peptide interaction inhibition curves – biochemical, fluorescence polarization, cherry-picked hits, dose response (AID 687001). Format: functional.
Assay [7] deals with HEK293. The assay is described as follows: PMA/Ionomycin-induced IL-8 production in HEK293- NF-kB-Luc stable cells. [Related pubchem assays: 1299, 1295, 1375, 1287, 1281, 1293, 1291, 1289, 1280, 465, 1364, 1282, 1372, 1365, 1367, 1366, 1266, 1269, 1373, 1292, 1290, 1302, 1371, 1283, 1271, 1294, 1374, 1368, 1369 ]. The assay is classed as functional, cell-based. Particulars: Homo sapiens.

For assay [8], the target named is Luciferin 4-monooxygenase (Photinus pyralis, UniProt P08659). Put plainly: In vitro luciferase assay using purified luciferase. [Related pubchem assays: 1299, 1270, 1295, 1375, 1287, 1281, 1293, 1291, 1289, 1280, 465, 1364, 1282, 1372, 1365, 1370, 1367, 1366, 1266, 1373, 1292, 1290, 1302, 1371, 1283, 1271, 1294, 1374, 1368, 1369 ].
Chain of Luciferin 4-monooxygenase (P08659 whole entry): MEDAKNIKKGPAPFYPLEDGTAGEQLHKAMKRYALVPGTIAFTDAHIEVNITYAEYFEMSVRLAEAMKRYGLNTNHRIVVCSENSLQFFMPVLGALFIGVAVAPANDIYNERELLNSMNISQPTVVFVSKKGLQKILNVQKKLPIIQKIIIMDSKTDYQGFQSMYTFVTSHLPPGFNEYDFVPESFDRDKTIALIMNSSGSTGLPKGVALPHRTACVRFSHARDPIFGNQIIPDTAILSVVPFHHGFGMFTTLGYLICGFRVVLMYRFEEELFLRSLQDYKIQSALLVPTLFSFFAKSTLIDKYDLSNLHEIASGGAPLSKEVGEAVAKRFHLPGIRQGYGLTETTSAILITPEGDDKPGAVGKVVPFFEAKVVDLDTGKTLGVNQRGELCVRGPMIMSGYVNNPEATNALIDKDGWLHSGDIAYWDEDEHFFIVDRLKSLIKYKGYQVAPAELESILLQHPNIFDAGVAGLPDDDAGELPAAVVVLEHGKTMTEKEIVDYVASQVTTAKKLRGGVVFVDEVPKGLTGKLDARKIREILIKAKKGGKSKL
Assay [9] deals with HEK293. The assay is described as follows: HEK293T cell viability loss, resazurin readout – resazurin fluorescence, cytotoxicity control for NF-kB activator project, SAR follow-up (AID 493251). Format: functional, cell-based. Particulars: Homo sapiens.
The subject of assay [10] is HEK293. The assay is described as follows: TNF Induced NF-kB Luciferase in 293-NF-kB-Luc Stable Cells. [Related pubchem assays: 1266, 1299, 1269, 1373, 1292, 1290, 1302, 1371, 1283, 1270, 1295, 1271, 1375, 1294, 1374, 1281, 1293, 1291, 1289, 1280, 465, 1368, 1364, 1282, 1372, 1365, 1369, 1370, 1367, 1366 ]. The following applies: Homo sapiens. Format: functional, cell-based.

For assay [11], the system named is HEK293. Put plainly: Cytotoxicity assay in HEK293 cells. [Related pubchem assays (depositor defined):AID1266, AID1269, AID1270, AID1271, AID1280, AID1281, AID1282, AID1283, AID1287, AID1289, AID1290, AID1291, AID1292, AID1293, AID1294, AID1295, AID1299, AID1302, AID1364, AID1365, AID1366, AID1367, AID1369, AID1370, AID1371, AID1372, AID1373, AID1374, AID1375, AID1384 …. Particulars: Homo sapiens. Format: functional, cell-based.

In a further assay the test system is Jurkat. The assay is described as follows: SAR Analysis of small molecule inhibitors of T-cell specific antigen receptor-induced NF-kB activation in a Jurkat cell line using a luminescence assay - Set 2. [Related pubchem assays (depositor defined):AID435003, AID435012, AID465]. The assay is classed as functional, cell-based. Particulars: Homo sapiens.
Assay [12] deals with HEK293. Put plainly: SAR Analysis of small molecule inhibitors of T-cell specific antigen receptor-induced NF-kB activation in a HEK-293T cell line using a luminescence assay - Set 2. [Related pubchem assays (depositor defined):AID435003, AID435012, AID489026]. The following applies: Homo sapiens. The assay is classed as functional, cell-based.
Assay [13] has as its system HEK293. Put plainly: PMA/Ionomycin induced NF-kB luciferase assay in 293- NF-kB-Luc stable cells. [Related pubchem assays: 1299, 1270, 1295, 1375, 1287, 1281, 1293, 1291, 1289, 1280, 465, 1364, 1282, 1372, 1365, 1370, 1367, 1366, 1269, 1373, 1292, 1290, 1302, 1371, 1283, 1271, 1294, 1374, 1368, 1369 ]. Format: functional, cell-based. Particulars: Homo sapiens.

Chain of Neuropeptides B/W receptor type 1 (P48145 whole entry): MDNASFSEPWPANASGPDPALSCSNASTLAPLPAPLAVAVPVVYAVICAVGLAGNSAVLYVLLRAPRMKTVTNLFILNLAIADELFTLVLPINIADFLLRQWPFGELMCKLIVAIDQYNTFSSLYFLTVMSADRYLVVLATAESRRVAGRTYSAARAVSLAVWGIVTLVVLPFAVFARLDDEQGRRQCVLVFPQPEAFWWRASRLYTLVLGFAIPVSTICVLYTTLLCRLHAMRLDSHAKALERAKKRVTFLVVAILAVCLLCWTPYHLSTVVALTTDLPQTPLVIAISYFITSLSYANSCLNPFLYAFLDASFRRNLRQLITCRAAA
Chain of Protein S100-A4 (P26447 whole entry): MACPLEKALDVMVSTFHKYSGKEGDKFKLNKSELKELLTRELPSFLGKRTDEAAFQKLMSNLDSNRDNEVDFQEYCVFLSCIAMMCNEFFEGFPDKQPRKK

Usually IC50 stands for the concentration that gives 50% inhibition. Regarding `CC(NC(=O)Cn1c(NCCO)nc2ccccc21)C1CC2CCC1C2` (stereo not given), the IC50 in [1] was > 35 µM (not active); in assay [2], > 35 µM (not active); in [3], > 14.6 µM (not active); in [4], > 43.8 µM (not active).

A word on the AC50: it is the concentration giving half of the maximal activity seen. Take `Cc1cc2cc(CNC(=O)Nc3ccc(Cl)c(Cl)c3)ccc2n1C`: the IC50 is 5.7 µM (active) in assay [5] and 4.53 µM (active) in assay [6]. Further, the AC50 at Protein S100-A4 was 1.74 µM (active).

As usually defined, the EC50 is the concentration giving half of the maximal effect. `CCOc1ccc(NC(=O)c2ccc([N+](=O)[O-])o2)cc1`: the 50% effective concentration (EC50) with HEK293 [7] was > 8 µM (not active); in assay [8], > 8 µM (not active); with HEK293 [10], > 8 µM (not active); in the assay on HEK293 [11], > 8 µM (inactive); in the assay with HEK293 [13], 2.77 µM (active). The IC50 in the assay with HEK293 [9] is 50.6 µM (inactive); in the assay on Jurkat, 38.9 µM (inactive); in the assay with HEK293 [12] it was 39.9 µM (inactive).
